In ChEMBL document CHEMBL5154799, “Discovery of a Novel Stilbene Derivative as a Microtubule Targeting Agent Capable of Inducing Cell Ferroptosis” (J Med Chem, 2022):
Where a name gives a salt, the structure may show the parent alone. The source made the active and inactive calls. No cut-off for these calls is given here.

Legend:
A549 [1] = test: Induction of apoptosis in human A549 cells assessed as cell rounding incubated for 24 hrs […]; assay type: functional, cell-based
A549 [2] = test: Induction of cell death in human A549 cells assessed as increased mitochondrial membrane density at 200 nM for 12 hrs by TEM analysis; assay type: functional, cell-based
HeLa = test: Antiproliferative activity against human HeLa cells assessed as cell viability incubated for 48 hrs by MTT assay; assay type: functional, cell-based
A2780 [3] = test: Antiproliferative activity against human A2780 cells assessed as cell viability incubated for 48 hrs by MTT assay; assay type: functional, cell-based; details: A2780, 48 h
HCT-8 [4] = test: Antiproliferative activity against human HCT-8 cells assessed as cell viability incubated for 48 hrs by MTT assay; assay type: functional, cell-based; details: HCT-8, 48 h
MCF7 = test: Antiproliferative activity against human MCF7 cells assessed as cell viability incubated for 48 hrs by MTT assay; assay type: functional, cell-based; details: MCF7, 48 h
Tubulin [5] = test: Inhibition of tubulin polymerization (unknown origin) assessed as fluorescence intensity emission at 410 nm for 60 mins; assay type: protein-complex assay, Homo sapiens
Tubulin [6] = test: Inhibition of [3H]colchicine binding to tubulin (unknown origin) by competitive binding assay; assay type: protein-complex assay, Homo sapiens
A549 [7] = test: Induction of apoptosis in human A549 cells assessed as chromatin condensation incubated for 24 hrs by CCK-8 assay; assay type: functional, cell-based
A549 [8] = test: Induction of apoptosis in human A549 cells assessed as nucleic fragmentation incubated for 24 hrs by CCK-8 assay; assay type: functional, cell-based
A549 [9] = test: Induction of apoptosis in human A549 cells assessed as apoptotic body formation incubated for 24 hrs […]; assay type: functional, cell-based
A549 [10] = test: Induction of cell death in human A549 cells assessed as vanished mitochondrial cristae at 200 nM for 12 hrs by TEM analysis; assay type: functional, cell-based
A549 [11] = test: Antiproliferative activity against human A549 cells assessed as cell viability incubated for 48 hrs by MTT assay; assay type: functional, cell-based; details: A549, 48 h
A549 [12] = test: Induction of apoptosis in human A549 cells assessed as cell viability pretreated with caspase inhibitor Z-VAD-FMK for 24 hrs followed by incubation with compound at 100 nM and measured after 48 hrs by CCK-8 assay; assay type: functional, cell-based
A549 [13] = test: Induction of apoptosis in human A549 cells assessed as cell viability pretreated with necroptosis inhibitor necrostatin-I for 24 hrs followed by incubation with compound at 100 nM and measured after 48 hrs by CCK-8 assay; assay type: functional, cell-based
A549 [14] = test: Induction of apoptosis in human A549 cells assessed as cell viability pretreated with autophagy inhibitor 3-methyladenine for 24 hrs followed by incubation with compound at 100 nM and measured after 48 hrs by CCK-8 assay; assay type: functional, cell-based
A549 [15] = test: Induction of apoptosis in human A549 cells assessed as cell viability pretreated with ferroptosis inhibitor desferoxamine for 24 hrs followed by incubation with compound at 100 nM and measured after 48 hrs by CCK-8 assay; assay type: functional, cell-based
A549 [16] = test: Induction of apoptosis in human A549 cells assessed as cell viability pretreated with ferroptosis inhibitor ferrostatin-1 for 24 hrs followed by incubation with compound at 100 nM and measured after 48 hrs by CCK-8 assay; assay type: functional, cell-based
A549 [17] = test: Induction of lipid […] accumulation in human A549 cells at 100 nM incubated for 24 hrs by C11-BODIPY-581/591 staining based flow cytometry analysis; assay type: functional, cell-based
A549 [18] = test: Induction of apoptosis in human A549 cells assessed as early apoptotic cells at 50 nM incubated for 24 hrs by annexin V-FITC/PI staining based flow cytometry analysis; assay type: functional, cell-based
A549 [19] = test: Induction of apoptosis in human A549 cells assessed as cell viability pretreated with caspase inhibitor Z-VAD-FMK for 24 hrs followed by incubation with compound at 200 nM and measured after 48 hrs by CCK-8 assay; assay type: functional, cell-based
A549 [20] = test: Induction of apoptosis in human A549 cells assessed as cell viability pretreated with necroptosis inhibitor necrostatin-I for 24 hrs followed by incubation with compound at 200 nM and measured after 48 hrs by CCK-8 assay; assay type: functional, cell-based
A549 [21] = test: Induction of apoptosis in human A549 cells assessed as cell viability pretreated with autophagy inhibitor 3-methyladenine for 24 hrs followed by incubation with compound at 200 nM and measured after 48 hrs by CCK-8 assay; assay type: functional, cell-based
A549 [22] = test: Induction of apoptosis in human A549 cells assessed as cell viability pretreated with ferroptosis inhibitor desferoxamine for 24 hrs followed by incubation with compound at 200 nM and measured after 48 hrs by CCK-8 assay; assay type: functional, cell-based
A549 [23] = test: Induction of apoptosis in human A549 cells assessed as cell viability pretreated with ferroptosis inhibitor ferrostatin-1 for 24 hrs followed by incubation with compound at 200 nM and measured after 48 hrs by CCK-8 assay; assay type: functional, cell-based
A549 [24] = test: Antiproliferative activity against human adriamycin-resistant A549/ADR cells assessed as cell viability incubated for 48 hrs by MTT assay; assay type: functional, cell-based; details: A549, 48 h
HCT-8 [25] = test: Antiproliferative activity against human vincristine-resistant HCT-8/VCR cells assessed as cell viability incubated for 48 hrs by MTT assay; assay type: functional, cell-based; details: HCT-8, 48 h
A2780 [26] = test: Antiproliferative activity against human paclitaxel-resistant A2780/TAX cells assessed as cell viability incubated for 48 hrs by MTT assay; assay type: functional, cell-based; details: A2780, 48 h
[27] = Resistance index, ratio of IC50 for antiproliferative activity against human vincristine-resistant HCT-8/VCR cells to IC50 for antiproliferative activity against HCT-8 cells; assay type: functional
A549 [28] = test: Resistance index, ratio of IC50 for antiproliferative activity against human adriamycin-resistant A549/ADR cells to IC50 for antiproliferative activity against human A549 cells; assay type: functional
[29] = Resistance index, ratio of IC50 for antiproliferative activity against human paclitaxel-resistant A2780/TAX cells to IC50 for antiproliferative activity against human A2780 cells; assay type: functional
A549 [30] = test: Induction of cell death in human A549 cells assessed as increased mitochondrial membrane density at 10 uM for 12 hrs by TEM analysis; assay type: functional, cell-based
A549 [31] = test: Induction of cell death in human A549 cells assessed as vanished mitochondrial cristae at 10 uM for 12 hrs by TEM analysis; assay type: functional, cell-based
A549 [32] = test: Induction of ferroptosis in human A549 cells assessed as depletion of GSH levels at 10 uM upto 12 hrs; assay type: functional, cell-based
A549 [33] = test: In vivo antitumor activity against human A549 cells xenografted in athymic nude BALB/c mouse assessed as tumor weight at 10 mg/kg measured after 30 days (reference value: 1 gram); assay type: functional; details: time 30 day
A549 [34] = test: In vivo antitumor activity against human A549 cells xenografted in athymic nude BALB/c mouse assessed as tumor volume at 10 mg/kg measured after 30 days (reference value: 1503.3 mm^3); assay type: functional; details: time 30 day
A549 [35] = test: In vivo antitumor activity against human A549 cells xenografted in athymic nude BALB/c mouse assessed as tumor growth inhibition at 10 mg/kg measured after 30 days relative to control; assay type: functional; details: A549, 720 h, time 30 day, read-out: TGI

COc1ccc(C(=O)c2cc(OC)c(OC)c(OC)c2)cc1O [PHENSTATIN]
Activity (A549 [1]): Active
Activity (A549 [2]): Active
IC50 (HeLa): 220 nM
IC50 (A2780 [3]): 110 nM
IC50 (HCT-8 [4]): 360 nM
IC50 (MCF7): 960 nM
IC50 (Tubulin [5]): 2940 nM
IC50 (Tubulin [6]): 3030 nM
Activity (A549 [7]): Active
Activity (A549 [8]): Active
Activity (A549 [9]): Active
Activity (A549 [10]): Active

C=C(c1ccc(OC)cc1NC(=O)CO)c1ccc(OC)c2c1OC(C)(C)C=C2
IC50 (A549 [11]): 40 nM
IC50 (HeLa): 40 nM
IC50 (A2780 [3]): 40 nM
IC50 (HCT-8 [4]): 130 nM
IC50 (MCF7): 100 nM
Activity (A549 [12]): Active
Activity (A549 [13]): Active
Activity (A549 [14]): Active
Activity (A549 [15]): Active
Activity (A549 [16]): Active
Activity (A549 [17]): Active

C=C(c1cc(OC)c(OC)c(OC)c1)c1ccc(OC)c(O)c1NC(C)=O
IC50 (A549 [11]): 80 nM
IC50 (HeLa): 90 nM
IC50 (A2780 [3]): 170 nM
IC50 (HCT-8 [4]): 340 nM
IC50 (MCF7): 270 nM
Activity (A549 [12]): Active
Activity (A549 [13]): Active
Activity (A549 [14]): Active
Activity (A549 [15]): Active
Activity (A549 [16]): Active

COc1ccc(C(=O)c2cc(OC)c(OC)c(OC)c2)c(NC(=O)CO)c1
IC50 (A549 [11]): 70 nM
IC50 (HeLa): 70 nM
IC50 (A2780 [3]): 100 nM
IC50 (HCT-8 [4]): 120 nM
IC50 (MCF7): 230 nM
Activity (A549 [18]): Active
Activity (A549 [12]): Active
Activity (A549 [13]): Active
Activity (A549 [14]): Active
Activity (A549 [15]): Active
Activity (A549 [16]): Active

C=C(c1cc(OC)c(OC)c(OC)c1)c1ccc(OC)c(O)c1NC(=O)COC
IC50 (A549 [11]): 190 nM
IC50 (HeLa): 330 nM
IC50 (A2780 [3]): 450 nM
IC50 (HCT-8 [4]): 280 nM
IC50 (MCF7): 560 nM
Activity (A549 [19]): Active
Activity (A549 [20]): Active
Activity (A549 [21]): Active
Activity (A549 [22]): Active
Activity (A549 [23]): Active

CC(=O)O[C@H]1C(=O)[C@@]2(C)[C@H]([C@H](OC(=O)c3ccccc3)[C@]3(O)C[C@H](OC(=O)[C@H](O)[C@@H](NC(=O)c4ccccc4)c4ccccc4)C(C)=C1C3(C)C)[C@]1(OC(C)=O)CO[C@@H]1C[C@@H]2O [PACLITAXEL]
IC50 (A549 [11]): 30 nM
IC50 (HCT-8 [4]): 20 nM
IC50 (A549 [24]): 70 nM
IC50 (HCT-8 [25]): 130 nM

COc1cccc2c1C(=O)c1c(O)c3c(c(O)c1C2=O)C[C@@](O)(C(=O)CO)C[C@@H]3O[C@H]1C[C@H](N)[C@H](O)[C@H](C)O1 [DOXORUBICIN HYDROCHLORIDE]
IC50 (A2780 [3]): 2030 nM
IC50 (HCT-8 [4]): 3980 nM
IC50 (A549 [24]): 12500 nM
IC50 (HCT-8 [25]): 21600 nM
IC50 (A2780 [26]): 2690 nM

CC[C@]1(O)C[C@H]2CN(CCc3c([nH]c4ccccc34)[C@@](C(=O)OC)(c3cc4c(cc3OC)N(C=O)[C@H]3[C@@](O)(C(=O)OC)[C@H](OC(C)=O)[C@]5(CC)C=CCN6CC[C@]43[C@@H]65)C2)C1 [VINCRISTINE]
Ratio IC50 [27]: 22.46
IC50 (A549 [11]): 60 nM
IC50 (A2780 [3]): 30 nM
IC50 (HCT-8 [4]): 350 nM
IC50 (A549 [24]): 560 nM
Ratio IC50 (A549 [28]): 9.33
IC50 (HCT-8 [25]): 7860 nM
IC50 (A2780 [26]): 170 nM
Ratio IC50 [29]: 5.67

CNCC(=O)Nc1cc(OC)ccc1C(=O)c1cc(OC)c(OC)c(OC)c1
IC50 (A549 [11]): 610 nM
IC50 (HeLa): 690 nM
IC50 (A2780 [3]): 580 nM
IC50 (HCT-8 [4]): 780 nM
IC50 (MCF7): 550 nM

C=C(c1cc(OC)c(OC)c(OC)c1)c1ccc(OC)c(O)c1NC(=O)CN(C)C
IC50 (A549 [11]): 50 nM
IC50 (HeLa): 120 nM
IC50 (A2780 [3]): 90 nM
IC50 (HCT-8 [4]): 110 nM
IC50 (MCF7): 210 nM

CCOc1ccccc1-n1c(C(C)N2CCN(C(=O)COc3ccc(Cl)cc3)CC2)nc2ccccc2c1=O (centres undefined) [ERASTIN]
Activity (A549 [30]): Active
Activity (A549 [31]): Active
Activity (A549 [32]): Active
Activity (A549 [33]): 0.89 g
Activity (A549 [34]): 1339.4 mm3
inhibition in vivo at 10 mg/kg (A549 [35]): 10.9%

COc1ccc(C(=O)c2ccc(OC)c3c2OC(C)(C)C=C3)c(NC(=O)CN)c1
IC50 (A549 [11]): 270 nM
IC50 (HeLa): 410 nM
IC50 (A2780 [3]): 380 nM
IC50 (HCT-8 [4]): 370 nM
IC50 (MCF7): 410 nM

C=C(c1ccc(OC)cc1NC(=O)CN)c1ccc(OC)c2c1C=CC(C)(C)O2
IC50 (A549 [11]): 90 nM
IC50 (HeLa): 200 nM
IC50 (A2780 [3]): 400 nM
IC50 (HCT-8 [4]): 520 nM
IC50 (MCF7): 780 nM

COc1ccc(C(=O)c2ccc(OC)c3c2OC(C)(C)C=C3)c(NC(=O)CO)c1
IC50 (A549 [11]): 80 nM
IC50 (HeLa): 100 nM
IC50 (A2780 [3]): 100 nM
IC50 (HCT-8 [4]): 230 nM
IC50 (MCF7): 320 nM
Activity (A549 [18]): Active
Activity (A549 [12]): Active
Activity (A549 [13]): Active
Activity (A549 [14]): Active
Activity (A549 [15]): Active
Activity (A549 [16]): Active
